Experimental data reported in PubChem BioAssay AID488827 (NMMLSC, 2010).
Activity calls are given as the source filed them.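 The calls were made as follows: active = EC50 at or below 33 µM; inactive = the rest.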

tested on: S. cerevisiae CIT2-GFP strain, flow cytometry GFP, 3 h; test: yeast TOR branch CIT2-GFP reporter modulators – flow cytometry, KU analogs, dose response, SAR follow-up (AID 488827)

| EC50 | Compound |
| --- | --- |
| 294 µM (inactive) | CSC1=NS(=O)(=O)c2c(C)nn(C)c2S1 |
| 65.2 µM (inactive) | O=S(=O)(CCN(CCS(=O)(=O)C(F)(F)F)CC1CCCO1)C(F)(F)F (configuration not stated) |
| 60.6 µM (inactive) | O=C(Nc1nc(-c2ccccn2)cs1)c1cc2ccccc2o1 |
| 81.1 µM (inactive) | Clc1ccc(N=c2ssnc2Cl)cc1 |
| 39.6 µM (inactive) | Cc1ccc(/C=C2/C(=O)ON=C2c2ccccc2)o1 |
| 61.4 µM (inactive) | Nc1nc(Nc2ccccc2)nc(Nc2cccc(F)c2)c1[N+](=O)[O-] |
| 33 µM (inactive) | O=[N+]([O-])c1cc(Cl)c2cccnc2c1O |
| > 300 µM (inactive) | COc1ccc([N+](=O)[O-])c(S(=O)(=O)c2ccccc2)n1 |
| 56.3 µM (inactive) | CNc1nc(N)c([N+](=O)[O-])c(Nc2ccc(F)cc2)n1 |
| 109 µM (inactive) | CCOC(=O)CS(=O)(=O)c1nc(-c2ccccc2)cc(C(F)(F)F)n1 |
| 298 µM (inactive) | O=C(Oc1ccnc2cc(Cl)ccc12)N1CCCCCC1 |
| 166 µM (inactive) | Oc1c(I)cc(I)c2cccnc12 |
| 71 µM (inactive) | C/C(=N\NC(=O)c1ccc(C(C)(C)C)cc1)c1ccccn1 |
| 3.99 µM | CNc1nc(N)c([N+](=O)[O-])c(Nc2ccccc2OC)n1 |
| 2.52 µM | CNc1nc(N)c([N+](=O)[O-])c(Nc2cccc(F)c2)n1 |
| 120 µM (inactive) | CCOC(=O)CSC1=NC(=O)/C(=C\c2ccc(Cl)cc2)S1 |

| EC50 | Compound |
| --- | --- |
| 124 µM (inactive) | COc1ccc([N+](=O)[O-])c(S(=O)(=O)c2ccc(Cl)cc2)n1 |
| 19.1 µM | CNc1nc(N)c([N+](=O)[O-])c(Nc2ccccc2)n1 |
| 87.4 µM (inactive) | O=C(Oc1c(Cl)cc(Cl)c2cccnc12)c1ccco1 |
| 251 µM (inactive) | O=C(Oc1c(Cl)cc(Cl)c2cccnc12)c1cccc([N+](=O)[O-])c1 |
| 1.07 µM | CNc1nc(N)c([N+](=O)[O-])c(Nc2cccc(Cl)c2)n1 |
| 87.1 µM (inactive) | CN1CCN(C(c2ccc(C(F)(F)F)cc2)c2ccc3cccnc3c2O)CC1 (configuration not stated) |
| 93.3 µM (inactive) | Nc1nc(NCCc2ccccc2)nc(Nc2cccc(F)c2)c1[N+](=O)[O-] |
| 161 µM (inactive) | Cc1c(C(=O)Nc2nc(-c3ccccn3)cs2)oc2ccccc12 |
| 107 µM (inactive) | CCOC(=O)CCS(=O)(=O)c1nc(-c2ccccc2)cc(C(F)(F)F)n1 |
| 188 µM (inactive) | O=C1ON=C(c2ccccc2)/C1=C\c1ccco1 |
| 66.9 µM (inactive) | CC(C)(C)C(=O)NC(=S)NNC(=O)c1ccc(-c2ccccc2)cc1 |
| 45.9 µM (inactive) | Cc1ccc(C(c2cc(Cl)c3cccnc3c2O)N2CCN(C)CC2)cc1 (configuration not stated) |
| 279 µM (inactive) | CN(C)CCCNc1nc(N)c([N+](=O)[O-])c(Nc2cccc(F)c2)n1 |
| 191 µM (inactive) | Cc1ccc(S(=O)(=O)c2ncccc2[N+](=O)[O-])cc1 |
| 3.75 µM | CNc1nc(N)c([N+](=O)[O-])c(NC2CCCCC2)n1 |
| 36.6 µM (inactive) | Nc1nc(Nc2cccc(F)c2)nc(Nc2cccc(F)c2)c1[N+](=O)[O-] |
